# What was measured:
# Format in all cases: in vivo
# Conditions in all cases: 250 g/h, evaluated after 13 days
# [1] = test system: Alopecurus myosuroides (ALOMY); assay: Pre-emergence herbicidal glasshouse test, percentage damage
# How it was run: (§1)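 Percentage damage, read 13 days after treatment and banded into five classes (1=0-19% up to 5=80-100%). Plants in pots of standard soil received 250 g/h as a spray from acetone/water (50:50) containing 0.5% Tween 20. Application was one day (pre-emergence) or eight days (post-emergence) after sowing.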
# [2] = test system: Avena fatua (AVEFA); assay: as above
# How it was run: as §1
# [3] = test system: Echinochloa crus-galli (ECHCG); assay: as above
# How it was run: as §1
# [4] = test system: Lolium perenne (LOLPE); assay: as above
# How it was run: as §1
# [5] = test system: Setaria faberi (SETFA); assay: as above
# How it was run: as §1
# [6] = test system: Setaria faberi (SETFA); assay: Post-emergence herbicidal glasshouse test, percentage damage
# How it was run: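 Wheat, barley and Setaria faberi were sprayed post-emergence after 8 days' growth (24/16 °C, 14 h light, 65% humidity) with compound in acetone/water (50:50) containing 0.5% Tween 20, at the indicated rates. On wheat, compounds were also applied with cloquintocet-mexyl at 50 g/ha. Damage was scored after 13 days on a five-point scale (5=80-100% to 1=0-19%).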
# [7] = test system: Alopecurus myosuroides (ALOMY); assay: as above
# How it was run: as §1
# [8] = test system: Avena fatua (AVEFA); assay: as above
# How it was run: as §1
# [9] = test system: Echinochloa crus-galli (ECHCG); assay: as above
# How it was run: as §1
# [10] = test system: Lolium perenne (LOLPE); assay: as above
# How it was run: as §1
compound,measurement,setting,value
CC#Cc1cc(C)c(C2C(=O)CC3(CCN(C(=O)CCc4ccn(C)n4)CC3)CC2=O)c(C)c1 [Compound A183],ALOMY PRE percentage damage (five point scale),[1],4 (4=60-79%)
same,AVEFA PRE percentage damage (five point scale),[2],4 (4=60-79%)
same,ECHCG PRE percentage damage (five point scale),[3],5 (5=80-100%)
same,LOLPE PRE percentage damage (five point scale),[4],5 (5=80-100%)
same,SETFA PRE percentage damage (five point scale),[5],5 (5=80-100%)
same,SETFA POST percentage damage (five point scale),[6],5 (5=80-100%)
same,ALOMY POST percentage damage (five point scale),[7],5 (5=80-100%)
same,AVEFA POST percentage damage (five point scale),[8],5 (5=80-100%)
same,ECHCG POST percentage damage (five point scale),[9],5 (5=80-100%)
same,LOLPE POST percentage damage (five point scale),[10],5 (5=80-100%)
CC#Cc1cc(C)c(C2=C(OC(C)=O)CC3(CCN(C(N)=O)CC3)CC2=O)c(C)c1 [Compound P9],ALOMY PRE percentage damage (five point scale),[1],5 (5=80-100%)
same,AVEFA PRE percentage damage (five point scale),[2],4 (4=60-79%)
same,ECHCG PRE percentage damage (five point scale),[3],5 (5=80-100%)
same,LOLPE PRE percentage damage (five point scale),[4],5 (5=80-100%)
same,SETFA PRE percentage damage (five point scale),[5],5 (5=80-100%)
same,SETFA POST percentage damage (five point scale),[6],5 (5=80-100%)
same,ALOMY POST percentage damage (five point scale),[7],5 (5=80-100%)
same,AVEFA POST percentage damage (five point scale),[8],5 (5=80-100%)
same,ECHCG POST percentage damage (five point scale),[9],5 (5=80-100%)
same,LOLPE POST percentage damage (five point scale),[10],5 (5=80-100%)
CC#Cc1cc(C)c(C2C(=O)CC3(CCN(C(=O)NC(=O)c4ccc(C(F)(F)F)cn4)CC3)CC2=O)c(C)c1 [Compound A168],ALOMY PRE percentage damage (five point scale),[1],4 (4=60-79%)
same,AVEFA PRE percentage damage (five point scale),[2],4 (4=60-79%)
same,ECHCG PRE percentage damage (five point scale),[3],5 (5=80-100%)
same,LOLPE PRE percentage damage (five point scale),[4],4 (4=60-79%)
same,SETFA PRE percentage damage (five point scale),[5],5 (5=80-100%)
same,SETFA POST percentage damage (five point scale),[6],4 (4=60-79%)
same,ALOMY POST percentage damage (five point scale),[7],4 (4=60-79%)
same,AVEFA POST percentage damage (five point scale),[8],4 (4=60-79%)
same,ECHCG POST percentage damage (five point scale),[9],5 (5=80-100%)
same,LOLPE POST percentage damage (five point scale),[10],4 (4=60-79%)
CC#Cc1cc(C)c(C2C(=O)CC3(CCN(C(=O)[C@@H](C)OC)CC3)CC2=O)c(C)c1 [Compound A154],ALOMY PRE percentage damage (five point scale),[1],5 (5=80-100%)
same,AVEFA PRE percentage damage (five point scale),[2],5 (5=80-100%)
same,ECHCG PRE percentage damage (five point scale),[3],5 (5=80-100%)
same,LOLPE PRE percentage damage (five point scale),[4],5 (5=80-100%)
same,SETFA PRE percentage damage (five point scale),[5],5 (5=80-100%)
same,SETFA POST percentage damage (five point scale),[6],5 (5=80-100%)
same,ALOMY POST percentage damage (five point scale),[7],5 (5=80-100%)
same,AVEFA POST percentage damage (five point scale),[8],5 (5=80-100%)
same,ECHCG POST percentage damage (five point scale),[9],5 (5=80-100%)
same,LOLPE POST percentage damage (five point scale),[10],5 (5=80-100%)
CC#Cc1cc(C)c(C2C(=O)CC3(CCN(C(=O)Cc4cnc[nH]4)CC3)CC2=O)c(C)c1 [Compound A196],ALOMY PRE percentage damage (five point scale),[1],3 (3=40-59%)
same,AVEFA PRE percentage damage (five point scale),[2],4 (4=60-79%)
same,ECHCG PRE percentage damage (five point scale),[3],5 (5=80-100%)
same,LOLPE PRE percentage damage (five point scale),[4],5 (5=80-100%)
same,SETFA PRE percentage damage (five point scale),[5],5 (5=80-100%)
same,SETFA POST percentage damage (five point scale),[6],5 (5=80-100%)
same,ALOMY POST percentage damage (five point scale),[7],5 (5=80-100%)
same,AVEFA POST percentage damage (five point scale),[8],5 (5=80-100%)
same,ECHCG POST percentage damage (five point scale),[9],5 (5=80-100%)
same,LOLPE POST percentage damage (five point scale),[10],5 (5=80-100%)
CC#Cc1cc(C)c(C2C(=O)CC3(CCN(C(=O)COCCOC)CC3)CC2=O)c(C)c1 [Compound A147],ALOMY PRE percentage damage (five point scale),[1],4 (4=60-79%)
same,AVEFA PRE percentage damage (five point scale),[2],3 (3=40-59%)
same,ECHCG PRE percentage damage (five point scale),[3],5 (5=80-100%)
same,LOLPE PRE percentage damage (five point scale),[4],5 (5=80-100%)
same,SETFA PRE percentage damage (five point scale),[5],5 (5=80-100%)
same,SETFA POST percentage damage (five point scale),[6],5 (5=80-100%)
same,ALOMY POST percentage damage (five point scale),[7],5 (5=80-100%)
same,AVEFA POST percentage damage (five point scale),[8],5 (5=80-100%)
same,ECHCG POST percentage damage (five point scale),[9],5 (5=80-100%)
same,LOLPE POST percentage damage (five point scale),[10],5 (5=80-100%)
CC#Cc1cc(C)c(C2=C(OC(=O)OC)CC3(CCN(C(=O)NOC)CC3)CC2=O)c(C)c1 [Compound P14],ALOMY PRE percentage damage (five point scale),[1],5 (5=80-100%)
same,AVEFA PRE percentage damage (five point scale),[2],5 (5=80-100%)
same,ECHCG PRE percentage damage (five point scale),[3],5 (5=80-100%)
same,LOLPE PRE percentage damage (five point scale),[4],5 (5=80-100%)
same,SETFA PRE percentage damage (five point scale),[5],5 (5=80-100%)
same,SETFA POST percentage damage (five point scale),[6],5 (5=80-100%)
same,ALOMY POST percentage damage (five point scale),[7],5 (5=80-100%)
same,AVEFA POST percentage damage (five point scale),[8],5 (5=80-100%)
same,ECHCG POST percentage damage (five point scale),[9],5 (5=80-100%)
same,LOLPE POST percentage damage (five point scale),[10],5 (5=80-100%)
CC#Cc1cc(C)c(C2C(=O)CC3(CCN(C(=O)NC(=O)C(C)(C)C)CC3)CC2=O)c(OC)c1 [Compound A77],ALOMY PRE percentage damage (five point scale),[1],5 (5=80-100%)
same,AVEFA PRE percentage damage (five point scale),[2],5 (5=80-100%)
same,ECHCG PRE percentage damage (five point scale),[3],5 (5=80-100%)
same,LOLPE PRE percentage damage (five point scale),[4],5 (5=80-100%)
same,SETFA PRE percentage damage (five point scale),[5],5 (5=80-100%)
same,SETFA POST percentage damage (five point scale),[6],5 (5=80-100%)
same,ALOMY POST percentage damage (five point scale),[7],5 (5=80-100%)
same,AVEFA POST percentage damage (five point scale),[8],5 (5=80-100%)
same,ECHCG POST percentage damage (five point scale),[9],5 (5=80-100%)
same,LOLPE POST percentage damage (five point scale),[10],5 (5=80-100%)
CC#Cc1cc(C)c(C2=C(OC(=O)c3ccncc3)CC3(CCN(C(=O)c4ccncc4)CC3)CC2=O)c(C)c1 [Compound P4],ALOMY PRE percentage damage (five point scale),[1],5 (5=80-100%)
same,AVEFA PRE percentage damage (five point scale),[2],4 (4=60-79%)
same,ECHCG PRE percentage damage (five point scale),[3],5 (5=80-100%)
same,LOLPE PRE percentage damage (five point scale),[4],5 (5=80-100%)
same,SETFA PRE percentage damage (five point scale),[5],5 (5=80-100%)
same,SETFA POST percentage damage (five point scale),[6],5 (5=80-100%)
same,ALOMY POST percentage damage (five point scale),[7],5 (5=80-100%)
same,AVEFA POST percentage damage (five point scale),[8],5 (5=80-100%)
same,ECHCG POST percentage damage (five point scale),[9],5 (5=80-100%)
same,LOLPE POST percentage damage (five point scale),[10],5 (5=80-100%)
CC#Cc1cc(C)c(C2C(=O)CC3(CCN(C(=O)NC(C)C)CC3)CC2=O)c(C)c1 [Compound A152],ALOMY PRE percentage damage (five point scale),[1],5 (5=80-100%)
same,AVEFA PRE percentage damage (five point scale),[2],5 (5=80-100%)
same,ECHCG PRE percentage damage (five point scale),[3],5 (5=80-100%)
same,LOLPE PRE percentage damage (five point scale),[4],5 (5=80-100%)
same,SETFA PRE percentage damage (five point scale),[5],5 (5=80-100%)
same,SETFA POST percentage damage (five point scale),[6],5 (5=80-100%)
same,ALOMY POST percentage damage (five point scale),[7],5 (5=80-100%)
same,AVEFA POST percentage damage (five point scale),[8],5 (5=80-100%)
same,ECHCG POST percentage damage (five point scale),[9],5 (5=80-100%)
same,LOLPE POST percentage damage (five point scale),[10],5 (5=80-100%)
"CC#Cc1cc(C)c(C2=C(OC(=O)OC)CC3(CCN(S(=O)(=O)CC)CC3)CC2=O)c(C)c1 [Compound P7, [9-(2,6-dimethyl-4-prop-1-ynyl-phenyl)-3-ethylsufonyl-10-oxo-3-azaspiro[5.5]undec-8-en-8-yl] methyl carbonate]",ALOMY PRE percentage damage (five point scale),[1],5 (5=80-100%)
same,AVEFA PRE percentage damage (five point scale),[2],5 (5=80-100%)
same,ECHCG PRE percentage damage (five point scale),[3],5 (5=80-100%)
same,LOLPE PRE percentage damage (five point scale),[4],5 (5=80-100%)
same,SETFA PRE percentage damage (five point scale),[5],5 (5=80-100%)
same,SETFA POST percentage damage (five point scale),[6],5 (5=80-100%)
same,ALOMY POST percentage damage (five point scale),[7],5 (5=80-100%)
same,AVEFA POST percentage damage (five point scale),[8],5 (5=80-100%)
same,ECHCG POST percentage damage (five point scale),[9],5 (5=80-100%)
same,LOLPE POST percentage damage (five point scale),[10],5 (5=80-100%)
CC#Cc1cc(C)c(C2C(=O)CC3(CCN(C(=O)NC(=O)c4cccc(F)n4)CC3)CC2=O)c(C)c1 [Compound A159],ALOMY PRE percentage damage (five point scale),[1],5 (5=80-100%)
same,AVEFA PRE percentage damage (five point scale),[2],5 (5=80-100%)
same,ECHCG PRE percentage damage (five point scale),[3],5 (5=80-100%)
same,LOLPE PRE percentage damage (five point scale),[4],5 (5=80-100%)
same,SETFA PRE percentage damage (five point scale),[5],5 (5=80-100%)
same,SETFA POST percentage damage (five point scale),[6],5 (5=80-100%)
same,ALOMY POST percentage damage (five point scale),[7],5 (5=80-100%)
same,AVEFA POST percentage damage (five point scale),[8],5 (5=80-100%)
same,ECHCG POST percentage damage (five point scale),[9],5 (5=80-100%)
same,LOLPE POST percentage damage (five point scale),[10],5 (5=80-100%)
CC#Cc1cc(C)c(C2C(=O)CC3(CCN(C(=O)NC(C)=O)CC3)CC2=O)c(C)c1 [Compound A71],ALOMY PRE percentage damage (five point scale),[1],5 (5=80-100%)
same,AVEFA PRE percentage damage (five point scale),[2],5 (5=80-100%)
same,ECHCG PRE percentage damage (five point scale),[3],5 (5=80-100%)
same,LOLPE PRE percentage damage (five point scale),[4],5 (5=80-100%)
same,SETFA PRE percentage damage (five point scale),[5],5 (5=80-100%)
same,SETFA POST percentage damage (five point scale),[6],5 (5=80-100%)
same,ALOMY POST percentage damage (five point scale),[7],5 (5=80-100%)
same,AVEFA POST percentage damage (five point scale),[8],5 (5=80-100%)
same,ECHCG POST percentage damage (five point scale),[9],5 (5=80-100%)
same,LOLPE POST percentage damage (five point scale),[10],5 (5=80-100%)
